Consider 2 molecules from patent US20110275703A1, “SUBSTITUTED SPIROKETAL DERIVATIVES AND USE THEREOF AS THERAPEUTIC DRUG FOR DIABETES” (CHUGAI SEIYAKU KABUSHIKI KAISHA, priority 2007, published 2011).

Broadly, the IC50 is the point on the concentration scale where inhibition reaches its midpoint.

One experiment has as its target T1, human SGLT2 (Homo sapiens, UniProt P31639).
T1 construct: expressed in transfected cells; host or cells: CHO-K1
T1 sequence (P31639 1-672): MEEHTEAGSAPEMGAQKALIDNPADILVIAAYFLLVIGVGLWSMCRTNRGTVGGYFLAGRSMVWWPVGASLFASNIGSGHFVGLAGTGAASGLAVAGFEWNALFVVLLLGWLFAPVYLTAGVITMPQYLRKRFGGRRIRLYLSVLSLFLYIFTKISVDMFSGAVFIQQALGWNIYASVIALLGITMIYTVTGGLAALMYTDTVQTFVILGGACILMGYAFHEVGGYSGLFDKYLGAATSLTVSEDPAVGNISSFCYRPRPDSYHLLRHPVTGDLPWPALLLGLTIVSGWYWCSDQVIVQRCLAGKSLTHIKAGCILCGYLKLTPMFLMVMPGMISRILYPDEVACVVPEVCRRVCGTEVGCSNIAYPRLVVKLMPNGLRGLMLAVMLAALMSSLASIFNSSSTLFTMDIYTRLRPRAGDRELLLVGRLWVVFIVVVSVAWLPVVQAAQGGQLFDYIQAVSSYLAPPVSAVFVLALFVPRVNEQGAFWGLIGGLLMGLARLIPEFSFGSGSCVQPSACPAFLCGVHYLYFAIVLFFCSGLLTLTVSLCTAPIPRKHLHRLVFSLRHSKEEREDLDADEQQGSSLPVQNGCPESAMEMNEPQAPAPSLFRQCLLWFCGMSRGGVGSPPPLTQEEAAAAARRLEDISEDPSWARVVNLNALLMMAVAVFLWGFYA
Briefly: Inhibitory activity against methyl-α-D-glucopyranoside uptake, CHO cells stably expressing human SGLT2. Type of experiment: cell-based. Conditions: inhibition of SGLT2, Table 2-1; read-out: IC50 value. The text has this:
Evaluation of inhibitory activity against methyl-α-D-glucopyranoside uptake of human Na^+-glucose cotransporter (SGLT1 and SGLT2)
2) Construction of Human SGLT2 Expression Vector
Human SGLT2 cDNA was amplified by PCR with a cDNA library derived from human kidney (Clontech) as a template, synthetic DNA primers and KOD+ DNA Polymerase. The amplified cDNA was inserted into pcRII-Topo vector by using a Topo TA Cloning Dual Promoter kit. E. coli competent cells (TPO10) were transformed with the plasmid vector, cultured in LB medium containing ampicillin (50 mg/L) to grow ampicillin-resistant clones. The plasmid vector containing human SGLT2 cDNA was purified from the clone in a standard manner. Human SGLT2 cDNA added restriction enzyme recognition sites (Xho I at 5′-end, Hind III at 3′-end) was amplified by PCR with the plasmid vector as a template, synthetic DNA primers containing an additional restriction enzyme recognition site and KOD+ DNA Polymerase. This amplified cDNA was digested with Xho I and Hind III, and ligated into expression vector pcDNA3.1(−) digested with Xho I and Hind III by using a Rapid DNA Ligation kit. E. coli competent cells (DH5α) were transformed with the ligated expression vector and grown in ampicillin-containing LB medium. Human SGLT2 expression vector was purified from the ampicillin-resistant clone in a standard manner.
3) Establishment of Cell Lines Stably Expressing Human SGLT1 or Human SGLT2
The human SGLT1 expression vector or the human SGLT2 expression vector was digested with the restriction enzyme Pvu I and transfected into CHO-Kl cells with FuGENE (Roche Diagonostics). After the transfection, the cells were cultured at 37° C. in the presence of 5% CO2 for about 3 weeks in DMEM medium (Gibco) containing penicillin (50 U/mL, SIGMA), streptomycin (50 mg/L, SIGMA), geneticin (200 mg/L, Nacalai Tesque, Inc., Japan) and 20% fetal bovine serum to obtain geneticin-resistant clones. Among these clones, clones stably expressing human SGLT1 or human SGLT2 were selected by the evaluating the sodium-dependent uptake activity of sugar (methyl-α-D-glucopyranoside).
4) Evaluation of Inhibitory Activity Against methyl-α-D-glucopyranoside uptake
Cell lines stably expressing human SGLT1 or human SGLT2 CHO were seeded in 96-well culture plates at a density of 30000 to 40000 cells/well and cultured for 4 to 6 days. The medium in these plates was removed and replaced by 150 μL/well pretreatment buffer (i.e., a buffer containing 140 mM choline chloride, 2 mM potassium chloride, 1 mM calcium chloride, 1 mM magnesium chloride, 10 mM 2-[4-(2-hydroxyethyl)-1-piperazinyl]ethanesulfonic acid and tris(hydroxymethyl)aminomethane, pH 7.4), and the plates were incubated at 37° C. for 20 minutes. The pretreatment buffer in the plates was removed, replaced by 50 μL/well fresh pretreatment buffer, and the plates were incubated at 37° C. for 20 minutes. Methyl-α-D-(U—^14C)glucopyranoside (6.3 mL, Amersham Pharmacia Biotech, 200 mCi/L) was added to and mixed with 100 mL buffer (i.e., a buffer containing 140 mM sodium chloride, 2 mM potassium chloride, 1 mM calcium chloride, 1 mM magnesium chloride, 1 mM methyl-α-D-glucopyranoside, 10 mM [4-(2-hydroxyethyl)-1-piperazinyl]ethanesulfonic acid and tris(hydroxymethyl)aminomethane, pH 7.4), which was used as uptake buffer. Test compounds were dissolved into uptake buffer and these test compound solutions were used for evaluating inhibitory activity. Uptake buffer without a test compound was used as a control solution. Moreover, for use in measuring baseline uptake in the absence of sodium, sodium-free solution was prepared in the same manner to contain 140 mM choline chloride instead of sodium chloride. The pretreatment buffer was removed from each well of the plates and replaced by 35 μL/well test compound solutions, control solution or sodium-free solution, and the plates were incubated at 37° C. for 45 minutes. […]

The next experiment deals with db/db mice. In words: Study for glucose lowering effect in db/db mouse. Type of experiment: in vivo. To be noted: Mus musculus, po, 0.3 mg/kg administration, 6 hours, read-out: reduction of blood glucose 6 hours after administration. Here is the method:
Study for Glucose Lowering Effect in dB/dB Mouse
A study for glucose lowering effect was conducted using db/db mice (purchased from Clea Japan, Inc., male, 9 to 11 weeks old), type 2 diabetic model mice. On the day of the study, body weights and blood glucose levels were measured prior to the start of testing. Measurement of the blood glucose levels was performed using a simple blood glucose meter (manufactured by Bayer HealthCare, Dexter-Z II). The mice were allocated to some groups consisting of 5 mice each so that homogeneity of body weights or blood glucose levels among groups would be ensured. Blood collection was carried out by making an incision on the tip of the tail and taking the blood therefrom. On the day of the study, the test compounds were suspended in 0.5% carboxymethylcellulose solution (CMC solution), and the dosing solutions of which concentration was adjusted to either 0.3 mg/10 mL or 3 mg/10 mL were prepared. The dosing solutions were orally administered by gavage for mice in 10 mL/kg. To the control group, only a 0.5% CMC solution was orally administered in 10 mL/kg. Blood was collected prior to or sequentially after administration of test compounds by above method. The blood glucose levels were determined using a hexokinase method (AutoSera S GLU, manufactured by Daiichi Pure Chemicals Co., Ltd.). A percent reduction of blood glucose relative to control group at each time point after administration of test compounds was calculated by the following equation.
Percent reduction of blood glucose (%)={blood glucose level in the control group (mg/dL)-blood glucose level in the test compound group (mg/dL)}/blood glucose level in the control group (mg/dL)×100

As to `OC[C@H]1O[C@]2(OCc3cc(Cl)c(Cc4ccc(C(F)(F)F)cc4)cc32)[C@H](O)[C@@H](O)[C@@H]1O` [Example 13, (1S,3′R,4′S,5′S,6′R)-5-chloro-6-[(4-trifluoromethylphenyl)methyl]-3′,4′,5′,6′-tetrahydro-6′-(hydroxymethyl)-spiro[isobenzofuran-1(3H),2′-[2H]pyran]-3′,4′,5′-triol], the IC50 at human SGLT2 is 1.7 nM. Further, the inhibition in vivo at 0.3 mg/kg with db/db mice was at least 25%.
The corresponding values for `Cc1ccc(Cc2cc3c(cc2F)CO[C@]32O[C@H](CO)[C@@H](O)[C@H](O)[C@H]2O)cc1` [Example 18, (1S,3′R,4′S,5′S,6′R)-5-fluoro-3′,4′,5′,6′-tetrahydro-6′-(hydroxymethyl)-6-[(4-methylphenyl)methyl]-spiro[isobenzofuran-1(3H),2′-[2H]pyran]-3′,4′,5′-triol] are 1.7 nM and at least 25%.
